What was measured:
MV4–11 cells = assay: Trypan blue exclusion viable cell count; assay type: cell-based, human; conditions: 0.1–10 nM, 72 h
Procedure: To determine the effect of HSN431 on actual leukemia cell counts, MV4–11 cells were seeded into 96 well plates as above and treated with either DMSO vehicle, or HSN431 at the following concentrations: 0.1 nM, 0.2 nM, 0.5 nM, 1 nM, 2 nM, 5 nM, and 10 nM. Cells were incubated for 72 h, and then counted using trypan blue exclusion on the Countess automated cell counter (Life Technologies, Carlsbad, CA). Cell counts were performed in triplicates, and the averages, standard deviations and t-test statistical analyses were graphed using GraphPad Prism software (GraphPad, La Jolla, CA).

FLT3 = target: T1, FLT3 (Homo sapiens, UniProt P36888); assay: Cell-free kinase assay, single dose (Reaction Biology, ADP-Glo); assay type: biochemical; conditions: inhibitor 500 nM; 100 μM ATP; average of duplicate
T1 construct: purchased Invitrogen PV3182
T1 sequence (P36888 564-993 limits assumed): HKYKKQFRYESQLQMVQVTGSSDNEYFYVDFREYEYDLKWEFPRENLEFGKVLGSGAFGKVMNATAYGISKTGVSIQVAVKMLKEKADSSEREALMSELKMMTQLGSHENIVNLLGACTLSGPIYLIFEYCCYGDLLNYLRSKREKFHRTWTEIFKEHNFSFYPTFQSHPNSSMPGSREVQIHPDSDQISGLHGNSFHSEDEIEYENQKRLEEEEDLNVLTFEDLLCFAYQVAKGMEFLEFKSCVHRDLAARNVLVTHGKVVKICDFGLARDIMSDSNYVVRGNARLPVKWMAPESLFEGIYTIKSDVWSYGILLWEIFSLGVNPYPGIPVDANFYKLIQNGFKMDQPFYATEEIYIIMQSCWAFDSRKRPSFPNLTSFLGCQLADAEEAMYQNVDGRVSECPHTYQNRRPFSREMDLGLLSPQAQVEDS
Procedure: Cell-free kinase activity assays were performed at Reaction Biology Corporation. […] DMSO was used as control. […] Experiments were performed in duplicates. The concentrations of kinases and substrates used in the assays are indicated on Table S1. Kinase activity was quantified using the ADP-Glo™ Kinase Assay System (Promega, Madison, WI) following the manufacturer's recommendations.

phospho-FLT3 = assay: Western blot, MV4–11 cells; assay type: cell-based, human; conditions: 2 nM or 10 nM, 6 h and 48 h
Procedure: (§1) MV4–11 cultures were treated with 2 nM and 10 nM of compounds for 6 h and 48 h. Total protein extraction, gel separation, transfer and imaging of blots were performed as previously described. The following primary antibodies from Cell Signaling Technologies (MA, USA) were used: Phospho-p70S6K (cat. no. 9205, RRID: AB_330944), p70S6K (cat. no. 9202, RRID: AB_331676), Phospho-p38 (cat. no. 9211, RRID: AB_331641), p38 (cat. no. 9212, RRID: AB_330713), c-Myc (cat. no. 9402, RRID: AB_2151827), Phospho-FLT3 (cat. no. 3461, RRID: AB_331060), FLT3 (cat. no. 3462, RRID: AB_10693420), Phospho-STAT5 (cat. no. 9359, RRID: AB_823649), STAT5 (cat. no. 9363, RRID: AB_2196923), Phospho-ERK (cat. no. 9101, RRID: AB_331646), ERK (cat. no. 4695, RRID: AB_390779), Phospho-AKT (cat. no. 9271), AKT (cat. no. 9272, RRID: AB_329825), Phospho-Src (cat. no. 2101, RRID: AB_331697), Src (cat. no. 2110, RRID: AB_2106058), Phospho-STAT3 (cat. no. 9145, RRID: AB_2491009), STAT3 (cat. no. 12640, RRID: AB_2629499). Mouse anti-β-Actin antibody was purchased from Sigma (MO, USA). A horseradish peroxidase-conjugated anti-rabbit or anti-mouse antibody (Cell Signaling Technologies) was used as secondary antibody. Scanned images were analyzed using image J software.

phospho-Src = assay: Western blot, MV4–11 cells; assay type: cell-based, human; conditions: 2 nM or 10 nM, 6 h and 48 h
Procedure: as §1

c-Myc = assay: Western blot, MV4–11 cells; assay type: cell-based, human; conditions: 2 nM or 10 nM, 6 h and 48 h
Procedure: as §1

phospho-STAT5 = assay: Western blot, MV4–11 cells; assay type: cell-based, human; conditions: 2 nM or 10 nM, 6 h and 48 h
Procedure: as §1

phospho-Akt = assay: Western blot, MV4–11 cells; assay type: cell-based, human; conditions: 2 nM or 10 nM, 6 h and 48 h
Procedure: as §1

phospho-ERK = assay: Western blot, MV4–11 cells; assay type: cell-based, human; conditions: 2 nM or 10 nM, 6 h and 48 h
Procedure: as §1

phospho-p38 = assay: Western blot, MV4–11 cells; assay type: cell-based, human; conditions: 2 nM or 10 nM, 6 h and 48 h
Procedure: as §1

phospho-p70S6K = assay: Western blot, MV4–11 cells; assay type: cell-based, human; conditions: 2 nM or 10 nM, 6 h and 48 h
Procedure: as §1

phospho-STAT3 = assay: Western blot, MV4–11 cells; assay type: cell-based, human; conditions: 2 nM or 10 nM, 6 h and 48 h
Procedure: as §1

[1] = system: AML cell lines (MV4–11, MOLM-14, MOLM-14 (ITD, D835Y), MOLM-14 (ITD, F691 L)); assay: Cell cycle analysis (PI flow cytometry); assay type: cell-based, human; conditions: 24 h and 48 h
Procedure: Cells seeded into T-25 flasks at a density of 8.0 × 10^4 cells/mL and incubated overnight at 37 °C with 5% CO2. Each treatment was performed in triplicates, with three flasks per treatment each with enough volume for both assays at the applicable time points. Following the overnight incubation, cells were treated with either DMSO or different concentrations of HSN431 (as indicated) in triplicates, mixed well and incubated. At each time point (24 and 48 h), aliquots of 1.5 mL of cells were collected from each flask and placed into labeled FACS tubes (for Annexin V apoptosis) or labeled 15 cc conical tubes (for cell cycle) and centrifuged at 300 × g for 5 min. Cells were washed twice with 1× PBS.
For cell cycle, cell pellets were resuspended in 0.5 mL PBS in 15 cc conical tubes and fixed with 4.5 mL of 70% ethanol. Fixed cells were stored at −20 °C until analysis with the Propidium Iodide (PI) Flow Cytometry Kit (cat. no. ab139418, Abcam, Cambridge, MA, USA). Samples were analyzed in duplicates on a FACSCanto II flow cytometer (BD Bioscience, San Jose, CA, USA) and cell cycle distribution was analyzed using the Watson algorithm analysis in FlowJo software (Flowjo, LLC, Ashland, OR).

Cc1ncc(C(=O)Nc2ccc(CN3CCN(C)CC3)c(C(F)(F)F)c2)cc1C#Cc1c(N)ncc2ccc(F)cc12 [Compound 7]
viable MV4–11 cell count (MV4–11 cells): decreased in presence of compound in dose-dependent manner | inhibition at 0.5 µM (FLT3): 97% | phosphorylation of FLT3 (phospho-FLT3): inhibition | phosphorylation of Src (phospho-Src): inhibition | c-Myc level (c-Myc): modest inhibition | STAT5 phosphorylation (phospho-STAT5): inhibited | phosphorylation of Akt (phospho-Akt): decreased phosphorylation | phosphorylation of ERK (phospho-ERK): inhibition | phosphorylation of p38 (phospho-p38): inhibition | phosphorylation of p70S6K (phospho-p70S6K): decreased phosphorylation | STAT3 phosphorylation (phospho-STAT3): inhibited | cells in the sub-G1 phase [1]: accumulation | distribution of cells in the S phase [1]: decreases | population of cells in the G0/G1 phase ([1]; dose- and time-dependent): increase

Reference: publication PMC6413339 (EBioMedicine, 2019)
